Data on eight compounds can be found in PubChem BioAssay (NCI).

Test systems include SK-MEL-2 melanoma; SNB-75 CNS; 786-0 renal; A498 renal; NCI/ADR-RES ovarian; OVCAR-5 ovarian; CCRF-CEM leukemia; OVCAR-3 ovarian; NCI-H460 lung; SK-MEL-5 melanoma.
Experiment in all cases: NCI anticancer screen, dose series, 48 h

Values joined by “and” are separate entries in the source; they are usually repeats but may differ in a detail not shown here. Identical values can stand only once.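 All cell lines were grown in 96-well plates and treated with compound for 48 hours. Abbreviation: GI50, concentration required for 50% inhibition of growth. TGI denotes the concentration required for complete inhibition of growth.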 Some results are limits rather than exact numbers.

In the case of `CC[N+](CC)=c1sc2c(s1)C(c1ccc(Cl)cc1)Oc1ccc(Cl)cc1-2` (stereo not drawn), the GI50 is 1.03 µM in the test with SK-MEL-2 melanoma; 0.783 µM in the test with SNB-75 CNS; 1.92 µM with 786-0 renal; 3.37 µM in the test on A498 renal; 21.6 µM with NCI/ADR-RES ovarian; 2.32 µM in the test on OVCAR-5 ovarian. The GI50 was 0.665 µM in the test with CCRF-CEM leukemia, 1.91 µM in the test on OVCAR-3 ovarian, 0.503 µM in the test on NCI-H460 lung and 1.22 µM in the test on SK-MEL-5 melanoma. Further, the TGI turned out to be 2.81 µM with SK-MEL-2 melanoma; 10.6 µM with SNB-75 CNS; 3.76 µM in the test on 786-0 renal; 10.2 µM in the test with A498 renal; 67.2 µM in the test with NCI/ADR-RES ovarian; 6.11 µM in the test with OVCAR-5 ovarian. In addition, the TGI was 6.35 µM in the test with CCRF-CEM leukemia, 3.95 µM with OVCAR-3 ovarian, 1.89 µM with NCI-H460 lung and 2.53 µM in the test with SK-MEL-5 melanoma.
As to `Cc1cnc(NC(=O)Nc2cc(Br)c(C)cc2OC[C@@H]2CNCCO2)cn1`, the GI50 in the test with SK-MEL-2 melanoma was 0.55 µM and 0.653 µM; with SNB-75 CNS, 4.61 µM and 2.95 µM; with 786-0 renal, 0.417 µM and 0.353 µM; in the test with A498 renal it was 0.33 µM and 0.0894 µM; in the test with NCI/ADR-RES ovarian, 0.841 µM and 0.679 µM; with OVCAR-5 ovarian it was 2.1 µM and 1.96 µM. In addition, the GI50 was 0.321 µM and 0.259 µM with CCRF-CEM leukemia; 1.37 µM and 1.13 µM in the test with OVCAR-3 ovarian; 1.47 µM and 0.928 µM in the test on NCI-H460 lung; 1.43 µM and 1.09 µM in the test with SK-MEL-5 melanoma. Further, the TGI was > 10 µM and 13 µM in the test on SK-MEL-2 melanoma; > 10 µM and 15.8 µM with SNB-75 CNS; > 10 µM and 5 µM with 786-0 renal; > 10 µM and 11.7 µM in the test with NCI/ADR-RES ovarian; > 10 µM and 13.4 µM with OVCAR-5 ovarian; 9.48 µM and 1.23 µM with CCRF-CEM leukemia. For the same compound, the TGI was > 10 µM and 10.2 µM in the test with OVCAR-3 ovarian; > 10 µM and 5.79 µM with NCI-H460 lung; 4.22 µM and 2.92 µM in the test with SK-MEL-5 melanoma.
For the compound `Cc1ccc(C)c2c1C(O)(C#Cc1ccccc1)c1ccccc1C2(O)C#Cc1ccccc1` (stereo not drawn), the GI50 was 2.98 µM in the test with SK-MEL-2 melanoma; 4.04 µM in the test on SNB-75 CNS; 3.72 µM in the test on 786-0 renal; 2.2 µM in the test with A498 renal; 3.63 µM in the test with NCI/ADR-RES ovarian; 8.39 µM with OVCAR-5 ovarian. In addition, the GI50 was 2.36 µM with CCRF-CEM leukemia, 3.12 µM with OVCAR-3 ovarian, 2.38 µM in the test with NCI-H460 lung and 1.63 µM in the test with SK-MEL-5 melanoma. Further, the TGI is 11.5 µM in the test on SK-MEL-2 melanoma; more than 100 µM in the test with SNB-75 CNS; more than 35.7 µM in the test on 786-0 renal; 14.9 µM with A498 renal; more than 28.9 µM in the test on NCI/ADR-RES ovarian; more than 100 µM in the test on OVCAR-5 ovarian. Besides, the TGI in the test with CCRF-CEM leukemia is more than 25.4 µM; with OVCAR-3 ovarian it was more than 34.7 µM; in the test with NCI-H460 lung, 12 µM; with SK-MEL-5 melanoma it was 4.99 µM.
For the compound `Cc1ccc(-c2csc(/N=C3\C(=O)Nc4ccccc43)n2)cc1`, the GI50 with SK-MEL-2 melanoma was 1.63 µM; with SNB-75 CNS it was 1.17 µM; in the test on 786-0 renal, 1.63 µM; with A498 renal, 1.71 µM; in the test with NCI/ADR-RES ovarian, 20.7 µM; in the test with OVCAR-5 ovarian, 1.93 µM. Also, the GI50 was 1.78 µM with CCRF-CEM leukemia, 1.64 µM in the test with OVCAR-3 ovarian, 1.76 µM in the test on NCI-H460 lung and 1.63 µM with SK-MEL-5 melanoma. The TGI with SK-MEL-2 melanoma was 3.69 µM; in the test on SNB-75 CNS it was 2.85 µM; in the test with 786-0 renal it was 3.28 µM; in the test on A498 renal it was 3.53 µM; in the test on NCI/ADR-RES ovarian, more than 100 µM; in the test with OVCAR-5 ovarian it was 4.57 µM. For the same compound, the TGI was 5.4 µM in the test with CCRF-CEM leukemia, 4.89 µM in the test with OVCAR-3 ovarian, 3.74 µM in the test with NCI-H460 lung and 3.02 µM with SK-MEL-5 melanoma.
Regarding `Cc1nc(SCC(=O)Nc2nc(-c3ccc(Cl)cc3)cs2)n(Nc2ccccc2)c1C`, the GI50 with SK-MEL-2 melanoma was 10.1 µM; with SNB-75 CNS, 3.48 µM; in the test on 786-0 renal it was 3.6 µM; in the test with A498 renal it was 2.24 µM; in the test on NCI/ADR-RES ovarian, 2.6 µM; with OVCAR-5 ovarian, 2.65 µM. Moreover, the GI50 with CCRF-CEM leukemia was 5.49 µM; in the test on OVCAR-3 ovarian, 3 µM; in the test with NCI-H460 lung, 2.89 µM; in the test with SK-MEL-5 melanoma, 2.24 µM. The TGI is 27.6 µM in the test on SK-MEL-2 melanoma; 16.2 µM with SNB-75 CNS; 13.7 µM with 786-0 renal; 10.5 µM in the test with A498 renal; 7.18 µM with NCI/ADR-RES ovarian; 13.5 µM in the test on OVCAR-5 ovarian. In addition, the TGI in the test with CCRF-CEM leukemia is more than 100 µM; in the test with OVCAR-3 ovarian, 12.1 µM; in the test with NCI-H460 lung it was 11 µM; in the test on SK-MEL-5 melanoma, 6.31 µM.
As for `C#CCOc1cccc(-c2ncnc3cc(NC(=O)CCl)ccc23)c1`, the GI50 with SK-MEL-2 melanoma was 1.26 µM; in the test with SNB-75 CNS it was 1.15 µM; with 786-0 renal, 0.208 µM; in the test with A498 renal it was 3.83 µM; with NCI/ADR-RES ovarian, 1.05 µM; with OVCAR-5 ovarian, 1.19 µM. The GI50 with CCRF-CEM leukemia was 0.0249 µM; in the test with OVCAR-3 ovarian it was 0.617 µM; with NCI-H460 lung it was 0.038 µM; with SK-MEL-5 melanoma, 0.684 µM. In addition, the TGI in the test on SK-MEL-2 melanoma was 3.78 µM; with SNB-75 CNS, 9.48 µM; with 786-0 renal, 2.26 µM; in the test on A498 renal, 15.9 µM; in the test on NCI/ADR-RES ovarian it was 14.9 µM; in the test on OVCAR-5 ovarian, 2.86 µM. In addition, the TGI was determined as 2.07 µM in the test on OVCAR-3 ovarian, 1.45 µM in the test with NCI-H460 lung and 2.19 µM in the test on SK-MEL-5 melanoma.
`COc1ccc2c(c1)C(=O)c1c-2n(CCCN=[N+]=[N-])c(=O)c2cc(OC)c(OC)cc12`: the GI50 is more than 100 µM in the test with SK-MEL-2 melanoma; 14.8 µM in the test on SNB-75 CNS; 26.7 µM in the test with 786-0 renal; more than 100 µM in the test with A498 renal; 80.1 µM with NCI/ADR-RES ovarian; more than 100 µM in the test with OVCAR-5 ovarian. The GI50 is 4.01 µM with CCRF-CEM leukemia, 49.2 µM in the test on OVCAR-3 ovarian, 7.99 µM in the test with NCI-H460 lung and more than 100 µM in the test with SK-MEL-5 melanoma. Moreover, the TGI was more than 100 µM in the test on SK-MEL-2 melanoma; 35.3 µM in the test on SNB-75 CNS; 89.5 µM in the test with 786-0 renal; more than 100 µM in the test on A498 renal; more than 100 µM in the test with NCI/ADR-RES ovarian; more than 100 µM with OVCAR-5 ovarian. Moreover, the TGI in the test with CCRF-CEM leukemia is 16.4 µM; in the test on OVCAR-3 ovarian, more than 100 µM; with NCI-H460 lung, more than 100 µM; in the test with SK-MEL-5 melanoma it was more than 100 µM.
Take `CCCC(=O)NC1=C(Cl)C(=O)c2ccccc2C1=O`: the TGI with SK-MEL-2 melanoma was 6.07 µM; in the test on SNB-75 CNS, 20.2 µM; with 786-0 renal it was 8.92 µM; in the test with A498 renal, 26.1 µM; in the test on NCI/ADR-RES ovarian, more than 23.2 µM; with OVCAR-5 ovarian it was 15.4 µM. Further, the TGI with CCRF-CEM leukemia was more than 100 µM; in the test with OVCAR-3 ovarian, 8.01 µM; in the test with NCI-H460 lung it was 20 µM; in the test with SK-MEL-5 melanoma, 6.85 µM.
